Experimental data as given in EP4610269A1, “UROKINASE PLASMINOGEN ACTIVATOR SURFACE RECEPTOR (UPAR) LIGANDS FOR DIAGNOSTIC OR THERAPEUTIC USE” (3B Pharmaceuticals GmbH, priority 2024, dated 2025).
Read-outs that look alike come from different tables or passages of the source. *1 amine or outer side, *2 acyl side, *3 side chain or, on linkers, in order; H or OH if unused. Where a SMILES comes first, the peptide text is derived from it. Bridges are numbered along the chain shown (N, C = ends). [ ]: non-standard residue; d: D form. The star is where a group is joined. DOTA = O=C(O)CN1CCN(CC(=O)O)CCN(CC(=O)*)CCN(CC(=O)O)CC1; Pro(trans-4-F) = O=C(O)[C@@H]1C[C@@H](F)CN1; Phe(4-Cl) = N[C@@H](Cc1ccc(Cl)cc1)C(=O)O; Hyp = O=C(O)[C@@H]1C[C@@H](O)CN1; dCit = NC(=O)NCCC[C@@H](N)C(=O)O; hArg = N=C(N)NCCCC[C@H](N)C(=O)O; Pentanoyl(4-Me) = CC(C)CCC(=O)*; Cit = NC(=O)NCCC[C@H](N)C(=O)O; Nva = CCC[C@H](N)C(=O)O; Hexanoyl = CCCCCC(=O)*; Pentanoyl = CCCCC(=O)*; CO = O=C([*:1])[*:2]; NHBu = CCCCN*

Key:
[1] = target: T1, uPAR-expressing HEC-265 human endometrial adenocarcinoma cells (Homo sapiens, UniProt Q03405); test: Competitive FACS binding assay; details: pIC50 category of FACS binding
T1 construct: Cell surface uPAR-expressing HEC-265 human endometrial adenocarcinoma cells; host or cells: HEC-265
In short: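 Competitive displacement of a 10 nM biotinylated peptide from HEC-265 cells (1 h, 4 °C, PBS/1% BSA), detected via APC-streptavidin by flow cytometry. pIC50 from four-parameter logistic fit of median fluorescence versus concentration.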

[2] = target: T2, Recombinant soluble human NEP (Homo sapiens, UniProt P08473); test: Proteolytic stability assay against NEP; assay type: in vitro ADME; details: recombinant soluble human NEP, human NEP 100 ng/mL, compound 10 µM, 37°C, LC-MS quantification, read-out: % intact compound remaining after 24h incubation
T2 construct: Recombinant soluble human NEP; purchased BioTechne, Wiesbaden, Germany
Protocol: To assess the stability of compounds against NEP, the compounds were subjected to an in vitro assay based on the protocol described by Edelson et al. (Edelson, Makhlina et al. 2013).
Recombinant soluble human NEP (BioTechne, Wiesbaden, Germany) at a concentration of 100 ng/mL was mixed with the compound (10 µM) and a stable internal standard (10 µM) and incubated at 37°C. After several time points, samples were taken and analyzed with LC-MS.
The determination of the analyte in the clean sample solutions was performed on an Agilent 1290 UHPLC system coupled to an Agilent 6530 Q-TOF mass spectrometer. The chromatographic separation was carried out on a Phenomenex BioZen XB-C18 HPLC column (50 × 2 mm, 1.7 µm particle size) with gradient elution using a mixture of 0.1% formic acid in water as eluent A and acetonitrile as eluent B (2% B to 41% in 7 min, 800 µl/min, 40°C). Mass spectrometric detection was performed in positive ion ESI mode by scanning the mass range from m/z 50 to 3000 with a sampling rate of 2 / sec.
(§1) From the mass spectrometric raw data the ion currents for the double or triple charged monoisotopic signal was extracted for both, the compound and the internal standard.
(§2) Quantitation was performed by external matrix calibration with internal standard using the integrated analyte signals.
The activity of NEP was examined using a commercially available chromogenic substrate of NEP.
The result is stated as "% intact compound remaining after 24 h incubation" and means that from the amount of material at the start of the experiment the stated percentage is detected as unchanged material at the end of the experiment by LC-MS quantification. Since all compounds are more than 50% intact after 24 h they are considered as stable enough for diagnostic and therapeutic applications. Table 14: Results of the NEP stability assay

human uPAR (uPAR-Fc) = target: T3, human uPAR (uPAR-Fc) (Homo sapiens, UniProt Q03405); test: Surface plasmon resonance (SPR) assay, single cycle kinetics; assay type: binding; details: pKD category for uPAR SPR activity assay, uPAR-Fc on Protein A-Chip, 25°C, read-out: pKD CAT (converted)
T3 construct: comprising amino acids Leu23-Arg303 according to UniProt entry Q03405.1; purchased R&D Systems 10378-UK-100
In short: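 uPAR-Fc (Leu23-Arg303 extracellular domains, human IgG1 Fc) captured on Protein A chip to ~2000 RU; single-cycle kinetics at 25°C in HEPES running buffer pH 7.4 with 0.1% DMSO. KD from double-referenced sensorgrams fitted to 1:1 Langmuir model, reported as pKD.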

[3] = Plasma stability assay (mouse plasma); assay type: in vitro ADME; details: mouse plasma (sodium citrate 3.7%), 37°C, LC-MS quantification, read-out: % intact compound remaining after 6h incubation Mouse plasma
Protocol: In order to determine the stability of selected compounds of the invention in human and mouse plasma, a plasma stability assay was carried out. Such plasma stability assay measures degradation of compounds of the present invention in blood plasma. This is an important characteristic of a compound as compounds, with the exception of pro-drugs, which rapidly degrade in plasma, generally show poor in vivo efficacy. […] The stability is sufficient for the diagnostic, therapeutic and theragnostic use of these compounds according to the present invention.
The plasma stability samples were prepared by spiking 50 µl plasma aliquots (all sodium citrate 3.7%) with 1 µl of a 0.5 mM compound stock solution in DMSO. After vortexing the samples were incubated in a Thermomixer at 37°C for 0 and 6 hours. After incubation the samples were stored on ice until further treatment. All samples were prepared in duplicates.
A suitable internal standard was added to each sample (1 µl of a 0.5 mM stock solution in DMSO). Protein precipitation was performed using two different methods depending on the compound conditions as indicated in Table 13. • A) 250 µl of acetonitrile containing 1% trifluoroacetic acid was added. After incubation at room temperature for 30 min the precipitate was separated by centrifugation and 150 µl of the supernatant was diluted with 150 µl of 1% aqueous formic acid. • B) 150 µl of a zinc sulphate precipitation agent containing 78% 0.1 M zinc sulphate and 22% acetonitrile was added. After incubation at room temperature for 30 min the precipitate was separated by centrifugation. To 100 µl of the supernatant 10 µl of 1% formic acid was added followed by further incubation at 60°C for 10 min to complete the formation of the zinc chelate, if the compound contains a free DOTA moiety.
The determination of the analyte in the clean sample solutions was performed on an Agilent 1290 UHPLC system coupled to an Agilent 6530 Q-TOF mass spectrometer. The chromatographic separation was carried out on a Phenomenex BioZen XB-C18 HPLC column (50 x 2 mm, 1.7 µm particle size).
Two different elution gradients were applied using a mixture of 0.1% formic acid in water as eluent A and acetonitrile as eluent B: • A) 2% B to 41% in 7 min, 800 µl/min, 40°C. • B) 5% B to 50% B in 6 min, 800 µL/min, 40°C.
Mass spectrometric detection was performed in positive ion ESI mode by scanning the mass range from m/z 50 to 3000 with a sampling rate of 2 / sec.
as §1, §2
Additionally, recovery was determined by spiking a pure plasma sample that only contained the internal standard after treatment with a certain amount of the compound.
Carry-over was evaluated by analysis of a blank sample (20% acetonitrile) after the highest calibration sample.
The result is stated as "% intact compound remaining after 6 h incubation" and means that from the amount of material at the start of the experiment the stated percentage is detected as unchanged material at the end of the experiment by LC-MS quantification. Since all compounds are more than 50% intact after 6 h they are considered as stable enough for diagnostic and therapeutic applications. Table 13: Results of the plasma stability assay

T1 sequence (Q03405 23-335): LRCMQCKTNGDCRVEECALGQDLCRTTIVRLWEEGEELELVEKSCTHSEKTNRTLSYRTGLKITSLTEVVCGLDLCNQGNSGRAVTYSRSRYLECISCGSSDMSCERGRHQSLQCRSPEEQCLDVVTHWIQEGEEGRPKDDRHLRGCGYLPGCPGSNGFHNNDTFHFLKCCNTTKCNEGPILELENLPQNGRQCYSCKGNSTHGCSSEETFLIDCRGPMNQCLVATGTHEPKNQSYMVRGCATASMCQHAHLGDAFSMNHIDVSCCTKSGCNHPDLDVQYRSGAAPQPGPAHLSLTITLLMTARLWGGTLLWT
T2 sequence (P08473 52-750 limits assumed): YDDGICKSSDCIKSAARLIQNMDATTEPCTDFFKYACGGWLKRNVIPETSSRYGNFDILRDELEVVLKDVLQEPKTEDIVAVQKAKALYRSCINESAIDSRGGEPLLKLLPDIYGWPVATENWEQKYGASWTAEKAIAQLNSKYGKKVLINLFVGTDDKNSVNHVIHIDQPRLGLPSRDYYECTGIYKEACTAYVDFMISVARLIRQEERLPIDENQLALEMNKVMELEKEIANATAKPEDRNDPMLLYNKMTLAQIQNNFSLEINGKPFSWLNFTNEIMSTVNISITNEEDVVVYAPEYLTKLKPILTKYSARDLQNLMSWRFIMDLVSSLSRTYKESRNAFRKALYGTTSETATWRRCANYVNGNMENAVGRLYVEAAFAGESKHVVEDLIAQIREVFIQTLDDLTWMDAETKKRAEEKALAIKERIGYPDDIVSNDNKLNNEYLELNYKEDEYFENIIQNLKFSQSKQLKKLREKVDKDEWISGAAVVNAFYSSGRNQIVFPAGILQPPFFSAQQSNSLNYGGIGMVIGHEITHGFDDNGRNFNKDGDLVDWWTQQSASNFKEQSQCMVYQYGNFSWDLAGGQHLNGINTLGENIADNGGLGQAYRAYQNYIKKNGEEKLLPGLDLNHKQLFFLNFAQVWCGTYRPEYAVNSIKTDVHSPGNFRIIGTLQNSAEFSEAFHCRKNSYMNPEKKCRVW
T3 sequence (Q03405 23-303): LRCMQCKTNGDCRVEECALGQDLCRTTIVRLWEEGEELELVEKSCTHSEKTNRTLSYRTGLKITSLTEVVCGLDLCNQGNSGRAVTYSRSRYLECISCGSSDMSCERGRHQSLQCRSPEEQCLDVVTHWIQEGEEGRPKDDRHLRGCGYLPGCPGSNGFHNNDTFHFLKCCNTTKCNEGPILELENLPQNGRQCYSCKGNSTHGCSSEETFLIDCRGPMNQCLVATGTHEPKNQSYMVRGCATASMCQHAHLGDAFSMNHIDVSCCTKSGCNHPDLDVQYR

SMILES | IC50 [1] [nM] | remaining at 24 h, 10 µM [2] [%] | Kd (human uPAR (uPAR-Fc)) [nM] | remaining at 6 h, 9.8 µM [3] [%] | Kd (human uPAR (uPAR-Fc); single cycle kinetics) [nM]
CCCCC(=O)N[C@H]1CSSC[C@@H](C(N)=O)NC(=O)[C@H](CCC)NC(=O)[C@H]([C@@H](C)CC)NC(=O)[C@@H]2C[C@@H](O)CN2C(=O)[C@@H]2CCCN2C(=O)[C@H](Cc2ccc(Cl)cc2)NC(=O)[C@H](Cc2ccc(O)cc2)NC(=O)[C@H](CCCCNC(=O)CN2CCN(CC(=O)O)CCN(CC(=O)O)CCN(CC(=O)O)CC2)NC(=O)[C@H](CCCNC(N)=O)NC1=O [UPAR-233, Pent-[Cys-Cit-Lys(DOTA)-Tyr-Pcf-Pro-Hyp-Ile-Nva-Cys]-NH2] (Pentanoyl-C[Cit]K(DOTA)Y[Phe(4-Cl)]P[Hyp]I[Nva]C-NH2; disulfide 1-10) | ≤ 10 | > 95 | < 1.58 |  | 
CCCCC(=O)N[C@H]1CSSC[C@@H](C(N)=O)NC(=O)[C@H](CCC)NC(=O)[C@H]([C@@H](C)CC)NC(=O)[C@@H]2C[C@@H](F)CN2C(=O)[C@@H]2CCCN2C(=O)[C@H](Cc2ccccc2)NC(=O)[C@H](Cc2ccc(O)cc2)NC(=O)[C@H](CCCCNC(=O)CN2CCN(CC(=O)O)CCN(CC(=O)O)CCN(CC(=O)O)CC2)NC(=O)[C@H](CCCNC(N)=O)NC1=O [UPAR-246, Pent-[Cys-Cit-Lys(DOTA)-Tyr-Phe-Pro-4Tfp-Ile-Nva-Cys]-NH2] (Pentanoyl-C[Cit]K(DOTA)YFP[Pro(trans-4-F)]I[Nva]C-NH2; disulfide 1-10) | ≤ 10 | 89 | < 1.58 |  | 
CCCCC(=O)N[C@H]1CSSC[C@@H](C(N)=O)NC(=O)[C@H](CCC)NC(=O)[C@H]([C@@H](C)CC)NC(=O)[C@@H]2C[C@@H](O)CN2C(=O)[C@@H]2CCCN2C(=O)[C@H](Cc2ccccc2)NC(=O)[C@H](Cc2ccc(O)cc2)NC(=O)[C@H](CCCCNC(=O)CN2CCN(CC(=O)O)CCN(CC(=O)O)CCN(CC(=O)O)CC2)NC(=O)[C@H](CCCCNC(=N)N)NC1=O [UPAR-278, Pent-[Cys-Har-Lys(DOTA)-Tyr-Phe-Pro-Hyp-Ile-Nva-Cys]-NH2] (Pentanoyl-C[hArg]K(DOTA)YFP[Hyp]I[Nva]C-NH2; disulfide 1-10) | ≤ 10 |  | < 1.58 | 87 | 
CCCCNC(=O)N[C@H]1CSSC[C@@H](C(N)=O)NC(=O)[C@H](CCC)NC(=O)[C@H]([C@@H](C)CC)NC(=O)[C@@H]2C[C@@H](O)CN2C(=O)[C@@H]2CCCN2C(=O)[C@H](Cc2ccccc2)NC(=O)[C@H](Cc2ccc(O)cc2)NC(=O)[C@H](CCCCNC(=O)CN2CCN(CC(=O)O)CCN(CC(=O)O)CCN(CC(=O)O)CC2)NC(=O)[C@H](CCCNC(N)=O)NC1=O [UPAR-346, nBu-CAyl-[Cys-Cit-Lys(DOTA)-Tyr-Phe-Pro-Hyp-Ile-Nva-Cys]-NH2] ({NHBu-CO}-C[Cit]K(DOTA)YFP[Hyp]I[Nva]C-NH2; disulfide 1-10) | ≤ 10 | 89 |  |  | < 1.58
CCCCCC(=O)N[C@@H](CC(=O)O)C(=O)N[C@@H](CC(C)C)C(=O)N[C@H]1CSSC[C@@H](C(N)=O)NC(=O)[C@H](CC(C)C)NC(=O)[C@H]([C@@H](C)CC)NC(=O)[C@H](CCCCNC(=O)CN2CCN(CC(=O)O)CCN(CC(=O)O)CCN(CC(=O)O)CC2)NC(=O)[C@@H]2CCCN2C(=O)[C@H](Cc2ccccc2)NC(=O)[C@H](Cc2ccc(O)cc2)NC(=O)[C@H](CCSC)NC(=O)[C@H](CCCNC(=N)N)NC1=O [UPAR-351, Hex-Asp-Leu-[Cys-Arg-Met-Tyr-Phe-Pro-Lys(DOTA)-Ile-Leu-Cys]-NH2] (Hexanoyl-DLCRMYFPK(DOTA)ILC-NH2; disulfide 3-12) | ≤ 10 |  |  | > 95 | < 1.58
CC[C@H](C)[C@@H]1NC(=O)[C@@H](C)NC(=O)[C@@H]2CCCN2C(=O)[C@H](Cc2ccccc2)NC(=O)[C@H](Cc2ccc(O)cc2)NC(=O)[C@H](CCC(N)=O)NC(=O)[C@@H](CCCNC(N)=O)NC(=O)[C@@H](NC(=O)CCC(C)C)CSSC[C@@H](C(N)=O)NC(=O)[C@H](CC(C)C)NC1=O [UPAR-364, iHex-[Cys-cit-Gln-Tyr-Phe-Pro-ala-Ile-Leu-Cys]-NH2] ({Pentanoyl(4-Me)}-C[dCit]QYFP[dA]ILC-NH2; disulfide 1-10) | ≥ 126 | > 95 |  |  | > 100
CC[C@H](C)[C@@H]1NC(=O)[C@@H](C)NC(=O)[C@@H]2CCCN2C(=O)[C@H](Cc2ccccc2)NC(=O)[C@H](Cc2ccc(O)cc2)NC(=O)[C@H](CCC(N)=O)NC(=O)[C@H](CCCNC(N)=O)NC(=O)[C@@H](NC(=O)[C@H](CC(C)C)NC(C)=O)CSSC[C@@H](C(N)=O)NC(=O)[C@H](CC(C)C)NC1=O [UPAR-418, Ac-Leu-[Cys-Cit-Gln-Tyr-Phe-Pro-ala-Ile-Leu-Cys]-NH2] (Ac-LC[Cit]QYFP[dA]ILC-NH2; disulfide 2-11) | ≤ 10 |  |  | 85 | < 1.58
CCCCCC(=O)N[C@@H](CC(=O)O)C(=O)N[C@@H](CC(C)C)C(=O)N[C@H]1CSSC[C@@H](C(N)=O)NC(=O)[C@H](CC(C)C)NC(=O)[C@H]([C@@H](C)CC)NC(=O)[C@H](C)NC(=O)[C@@H]2CCCN2C(=O)[C@H](Cc2ccccc2)NC(=O)[C@H](Cc2ccc(O)cc2)NC(=O)[C@H](CCCCNC(=O)CN2CCN(CC(=O)O)CCN(CC(=O)O)CCN(CC(=O)O)CC2)NC(=O)[C@H](CCCNC(=N)N)NC1=O [UPAR-427, Hex-Asp-Leu-[Cys-Arg-Lys(DOTA)-Tyr-Phe-Pro-Ala-Ile-Leu-Cys]-NH2] (Hexanoyl-DLCRK(DOTA)YFPAILC-NH2; disulfide 3-12) | ≤ 10 |  |  | > 95 | < 1.58
